Molecules are shown by their SMILES. Structures can show the parent of a compound that is named as a salt. Where two headings read alike, the source gives them in different places.

Here are results for 4 molecules from patent US8940785B2, “Association between 4-{3-[cis-hexahydrocyclopenta[c]pyrrol-2(1H)-yl]propoxy}benzamide and an acetylcholinesterase inhibitor, and pharmaceutical compositions containing it” (priority 2011, dated 2015).

Series [1] concerns middle-aged (14-15 months old) C57B16 mouse. In words: contextual serial discrimination test (model of episodic memory). It is filed as in vivo. As to conditions: chronic treatment for 9 days; for power of contextual memory (correct responses−interfering responses): carrier −28%. An excerpt:
The effects of 4-{3-[cis-hexahydrocyclopenta[c]pyrrol-2(1H)-yl]propoxy}benzamide and donepezil (both in the form of a hydrochloride), administered on their own or in combination, were studied using a contextual serial discrimination test in the middle-aged (14-15 months old) C57B16 mouse (n=12 per group) (Célérier et al., Learn Mem., 2004, 11(2), 196-204; Tronche et al., Behav. Brain Res., 2010, 215(2): 255-60). […] This model is relevant for evaluating the effects of products in Alzheimer's disease because patients suffering from that form of dementia also have disturbances of contextual episodic memory, this being the case from a very early stage (Gold and Budson, Expert Rev Neurother., 2008, 8(12): 1879-1891).
The mice, placed in a box with raised edges, learn two types of consecutive spatial discrimination (D1: white floor, then D2: black floor) on a floor with four holes, in which just one of the holes is baited, the arrangement being opposite in D1 and in D2 (see FIG. 1). Each discrimination is performed on a specific floor (black or white), which constitutes the internal context specific to each discrimination. 24 hours after the learning step, the mice are returned to the white contextual floor, and the following are measured: • the percentage of correct responses (i.e. % of lowering the head into the hole that was baited during the learning exercise on the white floor), • the percentage of interfering responses (i.e. % of lowering the head into the hole that was baited during the learning exercise on the black floor, the last context presented to the mice), • and the percentage of errors (i.e. % of lowering the head into the two holes that were not baited during learning, whether on the white floor or on the black floor (see FIG. 1).
The effects of 4-{3-[cis-hexahydrocyclopenta[c]pyrrol-2(1H)-yl]propoxy}benzamide and rivastigmine (used in the form of a hydrogen tartrate), administered on their own or in combination, were studied using the contextual serial discrimination test in the middle-aged C57B16 mouse described in the Example above.
The effects of 4-{3-[cis-hexahydrocyclopenta[c]pyrrol-2(1H)-yl]propoxy}benzamide and galantamine (used in the form of a hydrobromide), administered on their own or in combination, were also studied using the contextual serial discrimination test in the middle-aged C57B16 mouse.

In the next series the test system is C57B16 mouse. The following applies: administered on its own. The method, then: The effects, in terms of safety, of 4-{3-[cis-hexahydrocyclopenta[c]pyrrol-2(1H)-yl]propoxy}-benzamide and donepezil (both in the form of a hydrochloride), administered on their own or in association, were studied using Irwin's primary observation test in the C57B16 mouse (n=4 individuals per group).
Behavioural changes, physiological and neurotoxic symptoms, rectal temperature and pupil diameter were recorded using a standardised observation grid derived from that of Irwin.

With `NC(=O)c1ccc(OCCCN2C[C@H]3CCC[C@H]3C2)cc1` [4-{3-[cis-hexahydrocyclopenta[c]pyrrol-2(1H)-yl]propoxy}benzamide], the “increase in the level of correct responses compared to the carrier” value in series [1] (Example A, FIG. 2, 0.3 mg/kg of base per os) is on record as “more than 60%”; in series [1] (Example A, FIG. 2, 1 mg/kg of base per os) it was “more than 60%”. Besides, the “power of contextual memory (correct responses−interfering responses)” value (shortened to “power of contextual memory”) was “+6%” in series [1] (Example B, FIG. 4, 0.3 mg/kg of base per os); “+10%” in series [1] (Example B, FIG. 4, 1 mg/kg of base per os); −3% in series [1] (Example C, FIG. 5, 0.3 mg/kg of base per os); “+9%” in series [1] (Example C, FIG. 5, 1 mg/kg of base per os). Moreover, the “observable changes in Irwin's test” value in the series on C57B16 mouse (0.3 and 1 mg/kg of base per os) is recorded as “no observable changes”.
As for `COc1cc2c(cc1OC)C(=O)C(CC1CCN(Cc3ccccc3)CC1)C2` (stereo not drawn) [donepezil hydrochloride, donepezil], the “percentage of correct responses compared to the carrier” value in series [1] (Example A, FIG. 2, donepezil hydrochloride 0.1 mg/kg of base per os, tested 24 hours after learning) is given as “no significant improvement”. Further, the “observable changes in Irwin's test” value in the series on C57B16 mouse (donepezil 1 mg/kg of base per os (strongest dose)) is “reduces reactivity to touch and causes slight sedation”; in the series on C57B16 mouse (donepezil 0.1 and 0.3 mg/kg of base per os), “no observable changes”.
In the case of `COc1ccc2c3c1O[C@H]1C[C@@H](O)C=C[C@@]31CCN(C)C2` [galantamine, reference compound], the “power of contextual memory” value in series [1] (Example C, FIG. 5, galantamine 0.3 mg/kg of base per os) was −18%.
In the case of `CCN(C)C(=O)Oc1cccc([C@H](C)N(C)C)c1` [rivastigmine, reference compound], the “power of contextual memory” value in series [1] (Example B, FIG. 4, rivastigmine 0.1 mg/kg of base per os) was −9%.
